Measurements as given in patent US12077503B2, “Substituted cyclic amides and their use as herbicides” (FMC CORPORATION, priority 2015, dated 2024).

Experiments:
Assay type in all cases: in vivo
[1] = test system: ivy-leaved morning glory (Ipomoea hederacea); experiment: Test G Pre-Emergence Protocol; conditions: Ipomoea, pre-emergence, 312 h, evaluated after 13 days; for pest or weed control at 15.625 g/ha: 15.625 g ai/ha, read-out: Morning-glory, Ivy-leaved damage rating (100=total damage to plant; 0=no damage to plant); for pest or weed control at 62.5 g/ha: 62.5 g ai/ha, 100=total damage to plant, 0=no damage to plant, read-out: plant damage rating, Morningglory, Ivy-leaved; for pest or weed control at 250 g/ha: 250 g ai/ha, read-out: Morningglory, Ivy-leaved damage rating (100=total damage to plant; 0=no damage to plant)
In short: (§1)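 Visual injury (0–100) at day 13 after a single pre-emergence spray. Rates: 15.625, 62.5, 250 g/ha in acetone–water 50:50 with 0.5% Tween 20. Growth conditions: 24/16° C, 14 h light, 65% humidity.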

[2] = test system: giant foxtail (Setaria faberi); experiment: Test G Pre-Emergence Protocol; conditions: Setaria faberi, pre-emergence, 312 h, evaluated after 13 days; for pest or weed control at 15.625 g/ha: 15.625 g ai/ha; for pest or weed control at 15.625 g/ha / pest or weed control at 250 g/ha: read-out: Foxtail, Giant damage rating (100=total damage to plant; 0=no damage to plant); for pest or weed control at 62.5 g/ha: 62.5 g ai/ha, 100=total damage to plant, 0=no damage to plant, read-out: plant damage rating, Foxtail, Giant; for pest or weed control at 250 g/ha: 250 g ai/ha
In short: as §1

corn (Zea mays) [3] = experiment: Test G Pre-Emergence Protocol; conditions: Zea mays, pre-emergence, 312 h, evaluated after 13 days; for plant injury at 15.625 g/ha: 15.625 g ai/ha; for plant injury at 15.625 g/ha / plant injury at 250 g/ha: read-out: Corn damage rating (100=total damage to plant; 0=no damage to plant); for plant injury at 62.5 g/ha: 62.5 g ai/ha, 100=total damage to plant, 0=no damage to plant, read-out: plant damage rating, Corn; for plant injury at 250 g/ha: 250 g ai/ha
In short: as §1

[4] = test system: barnyardgrass (Echinochloa crus-galli); experiment: Test G Pre-Emergence Protocol; conditions: Echinochloa crus-galli, pre-emergence, 312 h, evaluated after 13 days; for pest or weed control at 15.625 g/ha: 15.625 g ai/ha, read-out: Barnyard grass damage rating (100=total damage to plant; 0=no damage to plant); for pest or weed control at 62.5 g/ha: 62.5 g ai/ha, 100=total damage to plant, 0=no damage to plant, read-out: plant damage rating, Barnyardgrass; for pest or weed control at 250 g/ha: 250 g ai/ha, read-out: Barnyardgrass damage rating (100=total damage to plant; 0=no damage to plant)
In short: as §1

[5] = test system: velvetleaf (Abutilon theophrasti); experiment: Test G Pre-Emergence Protocol; conditions: Abutilon theophrasti, pre-emergence, 312 h, evaluated after 13 days; for pest or weed control at 15.625 g/ha: 15.625 g ai/ha; for pest or weed control at 15.625 g/ha / pest or weed control at 250 g/ha: read-out: Velvetleaf damage rating (100=total damage to plant; 0=no damage to plant); for pest or weed control at 62.5 g/ha: 62.5 g ai/ha, 100=total damage to plant, 0=no damage to plant, read-out: plant damage rating, Velvetleaf; for pest or weed control at 250 g/ha: 250 g ai/ha
In short: as §1

[6] = test system: redroot pigweed (Amaranthus retroflexus); experiment: Test G Pre-Emergence Protocol; conditions: Amaranthus retroflexus, pre-emergence, 312 h, evaluated after 13 days; for pest or weed control at 15.625 g/ha: 15.625 g ai/ha; for pest or weed control at 15.625 g/ha / pest or weed control at 250 g/ha: read-out: Pigweed, Redroot damage rating (100=total damage to plant; 0=no damage to plant); for pest or weed control at 62.5 g/ha: 62.5 g ai/ha, 100=total damage to plant, 0=no damage to plant, read-out: plant damage rating, Pigweed, Redroot; for pest or weed control at 250 g/ha: 250 g ai/ha
In short: as §1

[7] = test system: ivy-leaved morning glory (Ipomoea hederacea); experiment: Test G Post-Emergence Protocol; conditions: Ipomoea, post-emergence, 312 h; for pest or weed control at 15.625 g/ha: 15.625 g ai/ha, evaluated after 13 days (100=total damage to plant; 0=no damage to plant), read-out: Morningglory, Ivy-leaved damage rating; for pest or weed control at 62.5 g/ha: 62.5 g ai/ha, read-out: Morningglory, Ivy-leaved damage rating (100=total damage to plant; 0=no damage to plant); for pest or weed control at 62.5 g/ha / pest or weed control at 250 g/ha: evaluated after 13 days; for pest or weed control at 250 g/ha: 250 g ai/ha, read-out: damage to plant, Morningglory, Ivy-leaved (100=total damage to plant; 0=no damage to plant)
In short: (§2)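 Post-emergence herbicidal damage, scored visually 0–100 at 13 days. Application at 15.625, 62.5 or 250 g/ha onto 8-day-old plants grown under glasshouse control.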

[8] = test system: giant foxtail (Setaria faberi); experiment: Test G Post-Emergence Protocol; conditions: Setaria faberi, post-emergence, 312 h; for pest or weed control at 15.625 g/ha: 15.625 g ai/ha, evaluated after 13 days (100=total damage to plant; 0=no damage to plant), read-out: Foxtail, Giant damage rating; for pest or weed control at 62.5 g/ha: 62.5 g ai/ha, read-out: Foxtail, Giant damage rating (100=total damage to plant; 0=no damage to plant); for pest or weed control at 62.5 g/ha / pest or weed control at 250 g/ha: evaluated after 13 days; for pest or weed control at 250 g/ha: 250 g ai/ha, read-out: damage to plant, Foxtail, Giant (100=total damage to plant; 0=no damage to plant)
In short: as §2

corn (Zea mays) [9] = experiment: Test G Post-Emergence Protocol; conditions: Zea mays, post-emergence, 312 h; for plant injury at 15.625 g/ha: 15.625 g ai/ha, evaluated after 13 days (100=total damage to plant; 0=no damage to plant), read-out: Corn damage rating; for plant injury at 62.5 g/ha: 62.5 g ai/ha, read-out: Corn damage rating (100=total damage to plant; 0=no damage to plant); for plant injury at 62.5 g/ha / plant injury at 250 g/ha: evaluated after 13 days; for plant injury at 250 g/ha: 250 g ai/ha, read-out: damage to plant, Corn (100=total damage to plant; 0=no damage to plant)
In short: as §2

[10] = test system: barnyardgrass (Echinochloa crus-galli); experiment: Test G Post-Emergence Protocol; conditions: Echinochloa crus-galli, post-emergence, 312 h; for pest or weed control at 15.625 g/ha: 15.625 g ai/ha, evaluated after 13 days (100=total damage to plant; 0=no damage to plant), read-out: Barnyardgrass damage rating; for pest or weed control at 62.5 g/ha: 62.5 g ai/ha, read-out: Barnyardgrass damage rating (100=total damage to plant; 0=no damage to plant); for pest or weed control at 62.5 g/ha / pest or weed control at 250 g/ha: evaluated after 13 days; for pest or weed control at 250 g/ha: 250 g ai/ha, read-out: damage to plant, Barnyardgrass (100=total damage to plant; 0=no damage to plant)
In short: as §2

[11] = test system: velvetleaf (Abutilon theophrasti); experiment: Test G Post-Emergence Protocol; conditions: Abutilon theophrasti, post-emergence, 312 h; for pest or weed control at 15.625 g/ha: 15.625 g ai/ha, evaluated after 13 days (100=total damage to plant; 0=no damage to plant), read-out: Velvetleaf damage rating; for pest or weed control at 62.5 g/ha: 62.5 g ai/ha, read-out: Velvetleaf damage rating (100=total damage to plant; 0=no damage to plant); for pest or weed control at 62.5 g/ha / pest or weed control at 250 g/ha: evaluated after 13 days; for pest or weed control at 250 g/ha: 250 g ai/ha, read-out: damage to plant, Velvetleaf (100=total damage to plant; 0=no damage to plant)
In short: as §2

[12] = test system: redroot pigweed (Amaranthus retroflexus); experiment: Test G Post-Emergence Protocol; conditions: Amaranthus retroflexus, post-emergence, 312 h; for pest or weed control at 15.625 g/ha: 15.625 g ai/ha, evaluated after 13 days (100=total damage to plant; 0=no damage to plant), read-out: Pigweed, Redroot damage rating; for pest or weed control at 62.5 g/ha: 62.5 g ai/ha, read-out: Pigweed, Redroot damage rating (100=total damage to plant; 0=no damage to plant); for pest or weed control at 62.5 g/ha / pest or weed control at 250 g/ha: evaluated after 13 days; for pest or weed control at 250 g/ha: 250 g ai/ha, read-out: damage to plant, Pigweed, Redroot (100=total damage to plant; 0=no damage to plant)
In short: as §2

| Structure (SMILES) | pest or weed control at 15.625 g/ha [1] [%] | pest or weed control at 62.5 g/ha [1] [%] | pest or weed control at 250 g/ha [1] [%] | pest or weed control at 15.625 g/ha [2] [%] | pest or weed control at 62.5 g/ha [2] [%] | pest or weed control at 250 g/ha [2] [%] | plant injury at 15.625 g/ha (corn (Zea mays) [3]) [%] | plant injury at 62.5 g/ha (corn (Zea mays) [3]) [%] | plant injury at 250 g/ha (corn (Zea mays) [3]) [%] | pest or weed control at 15.625 g/ha [4] [%] | pest or weed control at 62.5 g/ha [4] [%] | pest or weed control at 250 g/ha [4] [%] | pest or weed control at 15.625 g/ha [5] [%] | pest or weed control at 62.5 g/ha [5] [%] | pest or weed control at 250 g/ha [5] [%] | pest or weed control at 15.625 g/ha [6] [%] | pest or weed control at 62.5 g/ha [6] [%] | pest or weed control at 250 g/ha [6] [%] | pest or weed control at 15.625 g/ha [7] [%] | pest or weed control at 62.5 g/ha [7] [%] | other results |
| --- | --- | --- | --- | --- | --- | --- | --- | --- | --- | --- | --- | --- | --- | --- | --- | --- | --- | --- | --- | --- | --- |
| C=Cc1ccc([C@H]2CN(C)C(=O)[C@@H]2C(=O)Nc2ccccc2F)cc1 (racemic) [Compound 1457] | 0 | 0 | 0 | 0 | 20 | 90 | 0 | 0 | 0 | 0 | 0 | 50 | 0 | 0 | 0 | 0 | 0 | 0 | 0 | 0 | pest or weed control at 250 g/ha [7]: 20%; pest or weed control at 15.625 g/ha [8]: 0%; pest or weed control at 62.5 g/ha [8]: 20%; pest or weed control at 250 g/ha [8]: 50%; plant injury at 15.625 g/ha (corn (Zea mays) [9]): 0%; plant injury at 62.5 g/ha (corn (Zea mays) [9]): 0%; plant injury at 250 g/ha (corn (Zea mays) [9]): 10%; pest or weed control at 15.625 g/ha [10]: 0%; pest or weed control at 62.5 g/ha [10]: 10%; pest or weed control at 250 g/ha [10]: 10%; pest or weed control at 15.625 g/ha [11]: 0%; pest or weed control at 62.5 g/ha [11]: 0%; pest or weed control at 250 g/ha [11]: 0%; pest or weed control at 15.625 g/ha [12]: 0%; pest or weed control at 62.5 g/ha [12]: 0%; pest or weed control at 250 g/ha [12]: 0% |
| CN1C[C@@H](c2cncc(Cl)c2)[C@H](C(=O)Nc2cccc(F)c2F)C1=O (racemic) [Compound 1461] | 0 | 0 | 0 | 30 | 80 | 90 | 0 | 0 | 0 | 0 | 60 | 90 | 0 | 0 | 0 | 0 | 0 | 0 | 0 | 0 | pest or weed control at 250 g/ha [7]: 0%; pest or weed control at 15.625 g/ha [8]: 20%; pest or weed control at 62.5 g/ha [8]: 70%; pest or weed control at 250 g/ha [8]: 70%; plant injury at 15.625 g/ha (corn (Zea mays) [9]): 10%; plant injury at 62.5 g/ha (corn (Zea mays) [9]): 0%; plant injury at 250 g/ha (corn (Zea mays) [9]): 0%; pest or weed control at 15.625 g/ha [10]: 0%; pest or weed control at 62.5 g/ha [10]: 30%; pest or weed control at 250 g/ha [10]: 50%; pest or weed control at 15.625 g/ha [11]: 0%; pest or weed control at 62.5 g/ha [11]: 0%; pest or weed control at 250 g/ha [11]: 0%; pest or weed control at 15.625 g/ha [12]: 0%; pest or weed control at 62.5 g/ha [12]: 0%; pest or weed control at 250 g/ha [12]: 0% |
| CN1C[C@H](c2ccc(C(F)(F)F)cc2)[C@@H](C(=O)NC2=NOC(C)(C)C2)C1=O (racemic) [Compound 1427] | 0 | 0 | 0 | 0 | 0 | 0 | 0 | 0 | 0 | 0 | 0 | 0 | 0 | 0 | 0 | 0 | 0 | 0 | 0 | 0 | pest or weed control at 250 g/ha [7]: 0%; pest or weed control at 15.625 g/ha [8]: 0%; pest or weed control at 62.5 g/ha [8]: 0%; pest or weed control at 250 g/ha [8]: 0%; plant injury at 15.625 g/ha (corn (Zea mays) [9]): 0%; plant injury at 62.5 g/ha (corn (Zea mays) [9]): 0%; plant injury at 250 g/ha (corn (Zea mays) [9]): 0%; pest or weed control at 15.625 g/ha [10]: 0%; pest or weed control at 62.5 g/ha [10]: 0%; pest or weed control at 250 g/ha [10]: 0%; pest or weed control at 15.625 g/ha [11]: 0%; pest or weed control at 62.5 g/ha [11]: 0%; pest or weed control at 250 g/ha [11]: 0%; pest or weed control at 15.625 g/ha [12]: 0%; pest or weed control at 62.5 g/ha [12]: 0%; pest or weed control at 250 g/ha [12]: 0% |
